According to patent US20200071361A1, “ENGINEERED ANTIMICROBIAL AMPHIPHILIC PEPTIDES AND METHODS OF USE” (priority 2017, published 2020):
In brackets after ≈: the same amount, converted by molar mass. Several values for one entry are separate records, joined by “and”; a condition that tells them apart may be missing. Equal entries are not always repeated. Where two headings read alike, the source gives them in different places. No end group written: not given here.

Legend:
[1] = system: Staphylococcus aureus isolates (n = 104); test: Broth microdilution MIC, clinical isolate panel; type: cell-based; settings: Staphylococcus aureus (n = 104), all methicillin-resistant
Method: (§1) Comparator antibiotics were supplied by Micromyx, and stock solutions were prepared on the first day of testing using solvents recommended by CLSI (1). Stock solutions of all compounds were made at 40× the final testing concentration and stored at −80° C. prior to testing. Information regarding compound source, catalog and lot number, testing concentrations and drug diluent for the comparators and test agent are detailed below in Table 3.
(§2) The test organisms evaluated in this study consisted of clinical isolates from the Micromyx Repository and reference isolates from the American Type Culture Collection (ATCC; Manassas, Va.). The clinical isolates were obtained from USA hospitals. Upon initial receipt at Micromyx, the organisms were sub-cultured onto an appropriate agar medium. Following incubation, colonies were harvested from these plates and cell suspensions prepared and frozen at −80° C. with a cryoprotectant. Prior to testing, the isolates were streaked from frozen vials onto Trypticase Soy Agar with 5% sheep blood (Becton Dickenson [BD]; Sparks, Md.; Lot Nos. 7173618, 7166759, 7208688, 72144895, 7228505 and Remel Lenexa, Kans. Lot No. 212574). Plates were incubated at 35° C. overnight.
(§3) Mueller Hinton II broth (MHB II; BD; Lot Nos. 6258541 and 7143896) was used for MIC testing of aerobic organisms.
(§4) MIC values were determined using a broth microdilution procedure described by CLSI (1, 3). Automated liquid handlers (Multidrop 384, Labsystems, Helsinki, Finland; Biomek 2000 and Biomek FX, Beckman Coulter, Fullerton Calif.) were used to conduct serial dilutions and liquid transfers.
(§5) To prepare the drug mother plates, which would provide the serial drug dilutions for the replicate daughter plates, the wells of columns 2-12 of standard 96-well microdilution plates (Costar 3795) were filled with 150 μl of the designated diluent for each row of drug. The test articles and comparator compounds (300 μl at 40× the highest concentration to be tested) were dispensed into the appropriate wells in column 1. The Biomek 2000 was then used to make 2-fold serial dilutions in the mother plates from column 1 through column 11. The wells of Column 12 contained no drug and served as the organism growth control wells for the assay.
(§6) The daughter plates were loaded with 185 μL per well of MHB II using the Multidrop 384. The daughter plates were completed on the Biomek FX instrument which transferred 5 µL of drug solution from each well of a mother plate to the corresponding well of each daughter plate in a single step. A standardized inoculum of each test organism was prepared per CLSI methods (1). The inoculum for each organism was dispensed into sterile reservoirs divided by length (Beckman Coulter), and the Biomek 2000 was used to inoculate the plates. Daughter plates were placed on the Biomek 2000 work surface in reverse orientation so that inoculation took place from low to high drug concentration.
(§7) Plates were stacked 3-4 high, covered with a lid on the top plate, placed in plastic bags, and incubated at 35° C. for 16 to 20 hrs. Following incubation, the microplates were removed from the incubator and viewed from the bottom using a plate viewer. […] The MIC was read and recorded as the lowest concentration of drug that inhibited visible growth of the organism.
(§8) Clinical breakpoints to determine percent resistance within a given organism group were obtained from CLSI (3), with the exception of colistin for K. pneumoniae, Enterobacter spp., and E. coli, which are only available from EUCAST.

[2] = system: Enterococcus faecium isolates (n = 104); test: Broth microdilution MIC, clinical isolate panel; type: cell-based
Method: as §1, §2, §3, §4, §5, §6, §7, §8

[3] = for AUC(0-inf): AUCinf; for clearance: CL; for half-life: T 1/2, macaque; for Vd: Vss
Method: Animals will be obtained from the Test Facility's colony of adult male cynomolgous monkeys (Macaca fascicularis) of Chinese origin. Animals will be weighed prior to dosing.
Animals will be fasted a minimum of 2 hours prior to procedures requiring the administration of ketamine anesthesia. The diet will also be supplemented with other nutrients by feeding items such as raisins or fresh fruits that are presented to the animal as part of an environmental enrichment program. Offering items known to cause diarrhea will be avoided.
Intravenous administration will be via 30 minute infusion into a temporary percutaneous catheter placed into a saphenous vein. Prior to and following dose administration, the catheter will be flushed with 0.5 mL saline prior to removal. All dosing syringes will be weighed prior to and following dosing.
All animals will be observed at dosing and each scheduled collection. All abnormalities will be recorded.
Serial blood samples will be collected via femoral vein (cephalic or saphenous, as necessary). Approximately 1 mL blood samples will be collected into K2EDTA tubes.
Blood samples will be collected into K2EDTA tubes and stored on wet ice. Whole blood will be processed to plasma by centrifugation (2400-2700 rpm at 5° C.) within 30 minutes of collection. Plasma samples will be split into 2 equal aliquots and stored at −80° C. until analysis.
Administered doses will be determined gravimetrically.
Prior to extraction, a known concentration of a mass-adjusted internal standard (IS) will be added to assess recovery and allow for quantitation. Purified samples will be further subjected to high-performance liquid chromatography (HPLC) using C18 300 or 130 angstrom columns prior to MS/MS analysis. Multiple charge states will be observed by MS, so MS/MS will be employed to enable multiple reaction monitoring (MRM) analyses to determine the most MRM transitions with the highest signal-to-noise gain. Compound plasma concentrations will be determined by comparing to and compensating with co-purified IS peak intensity and validated calibrated standard curves.
Toxicokinetic parameters will be calculated using non-compartmental methods as implemented in the Phoenix® WinNonlin® ver. 6.3 comprehensive TK/PK analysis software program (Pharsight Corporation; Mountain View, Calif.) using an IV infusion model. Toxicokinetic analysis will be conducted using a 30-minute intravenous infusion time. Therefore, 30 minutes will be added to each sample time point postdose to obtain nominal time for TK analysis. Nominal times and dosage levels will be used for all calculations. Values below the lower limit of quantitation (BLQ) will be assigned a value of zero for the toxicokinetic calculations. Microsoft® Excel® 2013 will be used for receipt of bioanalytical data, minor formatting, including setting BLQ values to “0”, transfer into WinNonlin® for TK analysis, and calculation of the mean when an approximated value will be excluded. All plasma concentration data from all animals will be included in the analysis. Graphical presentations will be performed using Prism® for Macintosh ver. 7.0a (GraphPad, Inc.; La Jolla, Calif.).

[4] = mouse, in vivo, iv; for Vd: male CD-1 mice
Excerpt: Male CD-1 mice will be received from an approved vendor and allowed to acclimate for a minimum of two days. Fasting will be not required.
All dosing syringes will be weighed prior to and following dosing. IV doses will be administered as a slow bolus (over ˜30 seconds) via direct venipuncture of a tail vein. All animals will be observed at dosing and each scheduled collection. All abnormalities will be recorded.
Terminal blood samples will be collected via cardiac puncture following inhalation anesthesia.
Sample Processing and Storage: Blood samples will be collected into K2EDTA tubes and stored on wet ice. Whole blood will be processed to plasma by centrifugation (3500 rpm at 5° C.) within 30 minutes of collection. Plasma samples will be split into 2 equal aliquots and each transferred into 96 well plates (matrix tubes) and stored at −80° C. until analysis. Administered doses will be determined gravimetrically.
Pharmacokinetic parameters will be calculated using non-compartmental methods as implemented in the Phoenix® WinNonlin® ver. 6.3 comprehensive TK/PK analysis software program (Pharsight Corporation; Mountain View, Calif.) using an IV infusion model. Pharmacokinetic analysis will be conducted using a 30-minute intravenous infusion time. Therefore, 30 minutes will be added to each sample time point postdose to obtain nominal time for TK analysis. Nominal times and dosage levels will be used for all calculations. Values below the lower limit of quantitation (BLQ) will be assigned a value of zero for the pharmacokinetic calculations. Microsoft® Excel® 2013 will be used for receipt of bioanalytical data, minor formatting, including setting BLQ values to “0”, transfer into WinNonlin® for PK analysis, and calculation of the mean when an approximated value will be excluded. All plasma concentration data from all animals will be included in the analysis. Graphical presentations will be performed using Microsoft® Excel® 2013.

[5] = cynomolgus monkey, in vivo, iv, 1 mg/kg, macaque, 1 mg/kg IV infusion, Mean
[6] = cynomolgus monkey, in vivo, iv, 3 mg/kg, macaque, 3 mg/kg IV infusion, Mean
[7] = cynomolgus monkey, in vivo, iv, 10 mg/kg, macaque, 10 mg/kg IV infusion, Mean

C[C@H]1c2cccc(O)c2C(=O)C2=C(O)[C@]3(O)C(=O)C(C(N)=O)=C(O)[C@@H](N(C)C)[C@@H]3[C@@H](O)[C@@H]21 [Doxycycline]
% R (percent of isolates resistant, clinical breakpoints) [1]: 0%
MIC50 [1]: 0.12 µg/mL (≈ 0.27 µM)
MIC90 [1]: 1 µg/mL (≈ 2.25 µM)

CC(=O)NC[C@H]1CN(c2ccc(N3CCOCC3)c(F)c2)C(=O)O1 [Linezolid]
% R (percent of isolates resistant, clinical breakpoints) [1]: 1.9%
MIC90 [1]: 2 µg/mL (≈ 5.93 µM)
MIC ([1]; read-out: Mode (MIC)): 2 µg/mL (≈ 5.93 µM)
% R (percent of isolates resistant, clinical breakpoints) ([2]; Enterococcus faecium (n = 104)): 3.8%
MIC ([2]; Enterococcus faecium, read-out: Mode (MIC)): 2 µg/mL (≈ 5.93 µM)

RRWVRRVRRVWRRVVRVVRRWVRR-NH2 [SEQ ID NO: 1]
AUC(0-t) ([3]; cynomolgus monkey, in vivo, iv, 1 mg/kg, AUC0-24hr, macaque, 1 mg/kg IV infusion, Mean): 1090 ng·h/mL
AUC(0-inf) [3, 5]: 1170 ng·h/mL
AUC(0-t) ([3]; cynomolgus monkey, in vivo, iv, 1 mg/kg, AUClast, macaque, 1 mg/kg IV infusion, Mean): 983 ng·h/mL
clearance [3, 5]: 18.5 mL/min/kg
Cmax [3, 5]: 1710 ng/mL
half-life ([3]; cynomolgus monkey, in vivo, iv, 1 mg/kg, 1 mg/kg IV infusion, Mean): 2 h
Vd [3, 5]: 1.38 L/kg
Vd ([3]; cynomolgus monkey, in vivo, iv, 1 mg/kg, macaque, 1 mg/kg IV infusion, individual monkey): 1.53 L/kg
AUC(0-t) ([3]; cynomolgus monkey, in vivo, iv, 3 mg/kg, AUC0-24hr, macaque, 3 mg/kg IV infusion, Mean): 7580 ng·h/mL
AUC(0-inf) [3, 6]: 7710 ng·h/mL
AUC(0-t) ([3]; cynomolgus monkey, in vivo, iv, 3 mg/kg, AUClast, macaque, 3 mg/kg IV infusion, Mean): 7580 ng·h/mL
clearance [3, 6]: 7.18 mL/min/kg
Cmax [3, 6]: 10300 ng/mL
half-life ([3]; cynomolgus monkey, in vivo, iv, 3 mg/kg, 3 mg/kg IV infusion, Mean): 5.2 h
half-life ([3]; cynomolgus monkey, in vivo, iv, 3 mg/kg, 3 mg/kg IV infusion, individual monkey): 4.4 h
Tmax ([3]; cynomolgus monkey, in vivo, iv, 3 mg/kg, Tmax, macaque, 3 mg/kg IV infusion, Mean): 6.6 min
Vd [3, 6]: 1.29 L/kg
Vd ([3]; cynomolgus monkey, in vivo, iv, 3 mg/kg, macaque, 3 mg/kg IV infusion, individual monkey): 1.58 L/kg
AUC(0-t) ([3]; cynomolgus monkey, in vivo, iv, 10 mg/kg, AUC0-24hr, macaque, 10 mg/kg IV infusion, Mean): 50300 ng·h/mL
AUC(0-inf) [3, 7]: 50800 ng·h/mL
AUC(0-t) ([3]; cynomolgus monkey, in vivo, iv, 10 mg/kg, AUClast, macaque, 10 mg/kg IV infusion, Mean): 50300 ng·h/mL
clearance [3, 7]: 6.32 mL/min/kg
Cmax [3, 7]: 38200 ng/mL
half-life ([3]; cynomolgus monkey, in vivo, iv, 10 mg/kg, 10 mg/kg IV infusion, Mean): 4.6 h
half-life ([3]; cynomolgus monkey, in vivo, iv, 10 mg/kg, 10 mg/kg IV infusion, individual monkey): 4.3 h
Vd [3, 7]: 1.26 L/kg
T 1/2 ([3]; macaque, 3 mg/kg IV infusion, individual monkey, 3 mg/kg): 6.3 h and 5 h
T 1/2 ([3]; macaque, 10 mg/kg IV infusion, individual monkey, 10 mg/kg): 4.9 h and 4.6 h
AUC(0-inf) ([4]; 3 mg/kg): < 3500 ng·h/mL
C0 ([4]; 3 mg/kg): 26000 ng/mL
Cmax ([4]; 3 mg/kg): 16600 ng/mL
MRT last ([4]; 3 mg/kg): ~0.5 h
Tmax ([4]; 3 mg/kg): 0.303 h
clearance ([4]; 3 mg/kg): ~5 mL/min/kg
half-life ([4]; 3 mg/kg): ~8 h
Vd ([4]; 3 mg/kg, Vss, 3 mg/kg IV): ~0.2 L/kg
Vd ([4]; 3 mg/kg, Vz, 3 mg/kg IV): ~3 L/kg
AUC(0-inf) ([4]; 15 mg/kg): 53800 ng·h/mL
AUC(0-t) ([4]; 15 mg/kg): 53600 ng·h/mL
C0 ([4]; 15 mg/kg): 192000 ng/mL
Cmax ([4]; 15 mg/kg): 163000 ng/mL
MRT last ([4]; 15 mg/kg): 0.579 h
clearance ([4]; 15 mg/kg): 4.65 mL/min/kg
half-life ([4]; 15 mg/kg): 7.45 h
Vd ([4]; 15 mg/kg, Vss, 15 mg/kg IV): 0.208 L/kg
Vd ([4]; 15 mg/kg, Vz, 15 mg/kg IV): 3 L/kg
